Reference: the METLIN SMRT retention time set (Domingo-Almenara et al. 2019)

Assay: gradient 5% acetonitrile 3 min, to 50% in 2 min, to 85% in 15 min, held 3 min, 100 µL/min
Conditions: column: Zorbax Extend-C18 2.1 x 50 mm; eluents: water / acetonitrile, 0.1% formic acid
Summary of the method: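 Data were gathered over 3 months by HPLC coupled to a quadrupole time-of-flight mass spectrometer, operated in positive and negative ionization mode. Mixtures of ~100 pure standards ran on a Zorbax Extend-C18 column (2.1 × 50 mm, 1.8 μm) at 100 μL/min, with water and acetonitrile each containing 0.1% formic acid and dead and dwell volumes of 40 μL and 900 μL. Retention time was read from adduct peaks picked by computer and checked manually.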

| Compound | RP-LC retention time [s] |
| --- | --- |
| COc1ccc(-c2nc(C)cc(C)c2CNS(=O)(=O)c2ccc(F)cc2)cc1 | 654 |
| CCOc1ccc(CC(=O)N2CCN(Cc3nc(C)cs3)CC2)cc1 | 586 |
| CCCNC(=O)c1ccc2ncnc(N3CCCC3)c2c1 | 576 |
| CS(=O)(=O)N1CCC(C(=O)N2CCCCC2)Oc2ccc(Cl)cc21 (stereo not drawn) | 793 |
| CC1=C(c2ccccc2)S(=O)(=O)N=C1N1CCCN(C(=O)NC2CCCC2)CC1 | 778 |
| COc1cc(-c2noc(-c3nc(-c4ccccc4F)no3)n2)cc(OC)c1OC | 1140 |
| CCCn1c(C)cnc1C1CN(S(=O)(=O)c2ccc(Cl)cc2)C1 | 678 |
| Cc1csc(-c2cc(S(=O)(=O)N3CCc4ccccc4C3)c(C)s2)n1 | 1160 |
| COc1ccc(-c2nnc(-c3cccc(S(=O)(=O)N4CCOCC4)c3)o2)cc1OC | 813 |
| CNC(=O)C1CC(=O)N(c2cccc(C)c2)C1 (stereo not drawn) | 637 |
| Cc1cccc(N2CCN(C(=O)c3cn4c(n3)CCCC4)CC2)c1C | 690 |
| O=C(CSc1ccc(N2CCCC(C(=O)NC3CC3)C2)nn1)Nc1c(F)cccc1F (stereo not drawn) | 617 |
| COc1ccc(C[C@@H]2NC[C@@H](O)[C@@H]2OC(C)=O)cc1 | 600 |
| COc1ccccc1-c1nc(Cn2ccnc2C)no1 | 584 |
| CC(C)CN1CCn2cc(S(=O)(=O)Nc3cccc(F)c3)cc2C1=O | 786 |
| O=C(Cc1nnc2cc(-c3nc(C4CC4)no3)ccn12)NC1CC1 | 646 |
| Cc1ccc(C2=NC3(CCN(C(C)C)CC3)NC(c3ccccc3O)C2)cc1 (stereo not drawn) | 612 |
| Cc1noc([C@@H]2CN(Cc3ccc(F)cc3F)C[C@H]2CO)n1 | 580 |

| Compound | RP-LC retention time [s] |
| --- | --- |
| O=C(CC1CC1)N1CC(F)(F)C[C@H]1c1nnc(-c2ccccc2)o1 | 804 |
| CN(C)CC1(O)CCC2(CCN(Cc3ccc(Cl)c(F)c3)CC2)CC1 | 658 |
| COc1ccc(OC)c(NC(=O)c2cc(C)n(CCN(C)C)c2C)c1 | 636 |
| CC1(C)CC(=O)C2=C(C1)N(CC1CCCO1)C(=O)C2(NC(=O)c1ccc(F)cc1)C(F)(F)F (stereo not drawn) | 929 |
| Cc1ccc(NS(=O)(=O)c2c(C)sc(C)c2-c2cc(C(F)(F)F)on2)cc1 | 1190 |
| CC1(C)SC(C)(C)N(C=O)C1C(=O)O (stereo not drawn) | 708 |
| O=C(NCCC1=CCCCC1)C1CCN(c2cnc(N3CCOCC3)nc2)CC1 | 772 |
| Cc1nc(N2CCOCC2)c2c(C(=O)Nc3ccccc3F)c(C)oc2n1 | 805 |
| CCOC(=O)CNC(=O)N1CCC2(CC1)NC(=O)c1ccccc1O2 | 630 |
| COc1ccc(S(=O)(=O)N2CCC(C(=O)Nc3nccs3)CC2)cc1 | 720 |
| O=C(NCCCN1CCC(Cc2ccccc2)CC1)C1CCCN(S(=O)(=O)N2CCOCC2)C1 (stereo not drawn) | 660 |
| CCOC(=O)c1c(S(=O)(=O)N2CCC(C(=O)NC3CCCCCC3)CC2)c(C)n(C)c1C | 877 |
| COc1ccc(OC)c(NS(=O)(=O)c2cc3c(s2)CCN(C(=O)C2CCC2)C3)c1 | 866 |
| Cc1cc(C)cc(NC(=O)C2CCCN(S(=O)(=O)c3c[nH]c(C(=O)N4CCCC4)c3)C2)c1 (stereo not drawn) | 874 |
| COc1ccc(C(=O)Nc2nnc(SCc3nnc(-c4ccc5c(c4)OCO5)o3)s2)cc1OC | 834 |
| CCOC(=O)c1c(C)[nH]c(C)c1S(=O)(=O)N1CCC(C(=O)Nc2cc(Cl)ccc2C)CC1 | 890 |
| Cc1ccc(S(=O)(=O)N2CCCCCC2)cc1-c1nnc(-c2ccc(F)cc2)o1 | 1220 |
| Cc1ccc(CC(=O)N2CCC3(CC2)NC(=O)c2cccc(Cl)c2N3)cc1 | 812 |

Results, then the compound that gave them:

| RP-LC retention time [s] | Compound |
| --- | --- |
| 1030 | Cc1cc2nn(CC(=O)Nc3ccc(F)cc3Cl)c(=O)n2c(Nc2ccccc2)n1 |
| 797 | O=C(Cn1c(=O)c2cc(-c3ccco3)nn2c2ncccc21)NCCc1ccccc1 |
| 669 | Nc1nc(CN2CCN(c3ccccn3)CC2)nc(Nc2ccc(Oc3ccccc3)cc2)n1 |
| 742 | Cc1nc(OCC(=O)Nc2ccc(F)cc2F)c2ccccc2n1 |
| 784 | COc1ccc(NC(=O)Nc2nccn(-c3ccccc3)c2=O)cc1OC |
| 845 | O=C(c1ccc(F)c(F)c1)N1CCOC(c2ccccc2)C1 (stereo not drawn) |
| 614 | CCCS(=O)(=O)Nc1cccc(-c2cn3ccc(C)cc3n2)c1 |
| 761 | CC(CC(=O)Nc1ccccc1Cl)S(=O)(=O)c1ccc2c(c1)NC(=O)CCS2 (stereo not drawn) |
| 717 | COc1ccc(NC(=O)Cn2c(N3CCCCC3)nc(C)cc2=O)cc1F |
| 792 | O=C(NCCc1csc2nc(-c3cccs3)nn12)c1c(F)cccc1Cl |
| 983 | Cc1ccc(CNC(=O)c2nc(Cn3c(=O)oc4ccc(Cl)cc43)no2)cc1 |
| 918 | CCc1ccc(NC(=O)CN2C(=O)CCCc3cc(S(=O)(=O)N4CCCC4)ccc32)cc1 |
| 772 | CCOc1ccc(OCC)c(NC(=O)C2CC(=O)N(c3cccc(NC(C)=O)c3)C2)c1 (stereo not drawn) |
| 619 | Cc1cc(C(=O)N(CCc2cccs2)Cc2cccnc2)c(C)o1 |
| 733 | CCC(=O)Nc1cc(C)n(Cc2ccccc2)n1 |
| 905 | Cc1ccc(-c2cn3ccn(-c4ccc(Cl)cc4)c(=O)c3n2)cc1 |
| 1110 | Cc1ccccc1NC(=O)Cn1nc(N2CCC(C)CC2)c2ccccc2c1=O |
| 821 | O=C(Nc1nc2ccccc2s1)C1CCN(C(=O)c2cccc(F)c2)CC1 |
| 629 | O=C(Cc1ccc(F)cc1)NC1CCN(c2nnc3ccccn23)CC1 |
| 1050 | Cn1cc(C2=CCN(S(=O)(=O)c3cccc(C(F)(F)F)c3)CC2)c2cccnc21 |
| 603 | O=C(c1cncc(Br)c1)N1CCN(c2ccc(-c3ccco3)nn2)CC1 |
| 606 | O=C(Nc1ccc2c(c1)OCCO2)c1cc(-c2ccncc2)n[nH]1 |
| 829 | CCN1C(=O)C(C)(C(=O)NCc2cccc(OC)c2)Oc2cccnc21 (stereo not drawn) |
| 756 | COCCNC(=O)CN1c2ccc(F)cc2-c2ccccc2S1(=O)=O |
| 990 | CCCN1CCn2cc(S(=O)(=O)NCc3ccc(OC)cc3)cc2C1=O |
| 594 | CCn1c(C)nc2c1CN(CC(=O)NCCCN1CCCc3ccccc31)CC2 |

| RP-LC retention time [s] | Compound |
| --- | --- |
| 620 | Cn1c(CN2CCN(C(=O)NC(c3ccccc3)c3ccccc3)CC2)nc2ccccc21 |
| 674 | COc1ccc(S(=O)(=O)NC(CC(=O)O)c2ccccc2)cc1 (stereo not drawn) |
| 774 | COc1ccc(NC(=O)CSc2nccc(N3CCN(c4cc(C)ccc4C)CC3)n2)cc1OC |
| 822 | O=S(=O)(c1cccn2cnnc12)N(Cc1cccc(F)c1)c1ccc(F)cc1 |
| 1100 | Cc1ccc(OCc2nn3c(COc4ccc(F)cc4)nnc3s2)cc1C |
| 892 | CC(C)NC(=O)N(CC(=O)N1CCc2sccc2C1COc1ccccc1)C(C)C (stereo not drawn) |
| 903 | COc1ccc(CC(=O)Nc2ccc(-c3nc(Cn4nc(C)cc4C)c(C)o3)cc2)cc1 |
| 594 | Cc1cc(OCC(=O)NCc2ccc3c(c2)OCO3)nc(N2CCCCCC2)n1 |
| 684 | Cc1cc(NC(=O)N2CCC(n3cnc4cccnc43)CC2)ccc1Br |
| 1070 | CC(C)OCCCNC(=O)C1CCCN(c2nc3ccccc3n(Cc3ccccc3)c2=O)C1 (stereo not drawn) |
| 1190 | COc1cccc(Cn2nc(-c3nc(-c4ccc(Cl)cc4)no3)ccc2=O)c1 |
| 680 | O=C(CCC1CCN(c2cc(NC3CC3)ncn2)CC1)NCc1cccc(Cl)c1 |
| 782 | O=C(CCc1c(-c2ccc(Cl)cc2)nc2ccccn12)Nc1cccc(C(F)(F)F)c1 |
| 1050 | COc1ccc(-n2ncc3c(=O)n(Cc4nc(-c5cccc(C)c5)no4)cnc32)cc1 |
| 1160 | CCn1nccc1-c1cccc(-c2noc(-c3ccc(CS(=O)(=O)c4ccccc4)cc3)n2)c1 |
| 1160 | CCc1ccc(NC(=O)Cn2nc(N3CCCC(C)C3)c3ccccc3c2=O)cc1 (stereo not drawn) |
| 1010 | O=C(CCn1c(=O)sc2ccccc21)Nc1nc(-c2ccccc2)cs1 |
| 1350 | CCCCCn1c(=O)c2ccccc2n(Cc2nc(-c3cccc(OCC)c3)no2)c1=O |
| 788 | COc1ccc(-n2ccc(=O)c(-c3nc(-c4ccc(OC)c(OC)c4)no3)n2)cc1 |
| 594 | CC(C)C(=O)Nc1ccc(CCc2nc3ccc(C(=O)NC4CC4)cc3[nH]2)cc1 |
| 627 | Cc1ccc(C)c2c(=O)c3c([nH]c12)CCN(CC(=O)Nc1ccccc1)C3 |
| 875 | Cc1ccc(OCc2nnc(SCC(=O)Nc3nc(-c4ccccc4)cs3)o2)cc1 |
| 888 | Cc1cccc(NC(=O)Cn2c(=O)n(-c3cccc(C)c3)c(=O)c3c2cc(C)n3C)c1 |
| 1190 | O=c1c2cc(-c3ccc(F)cc3)nn2cnn1Cc1nc(-c2ccc(Cl)cc2)no1 |
| 1070 | COc1ccccc1-c1nc(Cn2c(=O)c3c(C)cc(C)nc3n(C)c2=O)c(C)o1 |
| 833 | Cc1ccccc1Nc1c(-c2cccc(Br)c2)nc2cccc(C)n12 |
